# Source: PubChem BioAssay (NCI)
# Several values for one entry are separate records, joined by “and”; a condition that tells them apart may be missing. Equal entries are not always repeated.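 Values below derive from 48-hour exposures of cells grown in 96-well plates, with endpoints linearly interpolated between the two concentrations bracketing the appropriate inhibition level. GI50 is the concentration that inhibits growth by half. TGI: total growth inhibition.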 Non-standard residues stand in square brackets, D forms with d. Residues, ends and D or L forms follow the SMILES beside them. *: point of attachment. ONb = O=[N+]([O-])c1ccc(CO*)cc1; AllylGly = C=CC[CH](N)C(=O)O; Boc = CC(C)(C)OC(=O)*
# Tests used:
# Test in all cases: DTP human tumour cell line panel, 48 h
# A498 renal = tested on: A498 renal
# HOP-92 NSCLC = tested on: HOP-92 NSCLC
# IGROV1 ovarian = tested on: IGROV1 ovarian
# M14 melanoma = tested on: M14 melanoma
# RPMI-8226 leukemia = tested on: RPMI-8226 leukemia
# SK-MEL-2 melanoma = tested on: SK-MEL-2 melanoma
# SN12C renal = tested on: SN12C renal
# SR leukemia = tested on: SR leukemia
# U251 CNS = tested on: U251 CNS
# UACC-62 melanoma = tested on: UACC-62 melanoma
SMILES,GI50 (A498 renal),TGI (A498 renal),GI50 (HOP-92 NSCLC),TGI (HOP-92 NSCLC),GI50 (IGROV1 ovarian),TGI (IGROV1 ovarian),GI50 (M14 melanoma),TGI (M14 melanoma),GI50 (RPMI-8226 leukemia),TGI (RPMI-8226 leukemia),GI50 (SK-MEL-2 melanoma),TGI (SK-MEL-2 melanoma),GI50 (SN12C renal),TGI (SN12C renal),GI50 (SR leukemia),TGI (SR leukemia),GI50 (U251 CNS),TGI (U251 CNS),GI50 (UACC-62 melanoma),TGI (UACC-62 melanoma)
O=C(CN1CCN(c2ncccn2)CC1)Nc1ccc(Cl)cc1C(=O)c1ccccc1Cl,> 100 µM,> 100 µM,5.73 µM,75.1 µM,93.2 µM,> 100 µM,> 100 µM,> 100 µM,9.51 µM,> 100 µM,> 100 µM,> 100 µM,> 100 µM,> 100 µM,67.8 µM,> 100 µM,> 100 µM,> 100 µM,92.8 µM,> 100 µM
COc1ccc2c(c1)[nH]c(=O)c1c3cc(C)c(C)cc3cn21,< 0.01 µM,< 0.0295 µM,0.485 µM,2.32 µM,< 0.0188 µM,0.215 µM,< 0.01 µM,1.2 µM,< 0.01 µM,0.0656 µM,< 0.0208 µM,6.19 µM,< 0.0192 µM,1.74 µM,< 0.0152 µM,0.224 µM,< 0.01 µM,1.2 µM,< 0.0204 µM,5.32 µM
C=C1C(=O)O[C@H]2[C@H]1CC/C(COC(=O)c1cc3cc(F)ccc3[nH]1)=C\CC[C@@]1(C)O[C@@H]21,3.35 µM,8.96 µM,1.38 µM,3.21 µM,1.44 µM,3.14 µM,1.89 µM,4.11 µM,2 µM,7.09 µM,1.95 µM,4.27 µM,1.85 µM,3.92 µM,2.03 µM,17.6 µM,1.82 µM,3.57 µM,1.89 µM,3.79 µM
O=[N+]([O-])C1C(c2ccccc2)C12c1ccccc1-c1ccccc12 (centres undefined),0.316 µM,3.83 µM,0.25 µM,2.05 µM,3.41 µM,30.1 µM,0.789 µM,23.7 µM,0.322 µM,1.51 µM,4.4 µM,31.4 µM,1.67 µM,26 µM,0.348 µM,4.22 µM,1.03 µM,14 µM,0.544 µM,15.6 µM
C=CCC(NC(=O)OC(C)(C)C)C(=O)NC(CCC(=O)OCc1ccc([N+](=O)[O-])cc1)C(N)=O (centres undefined) (Boc-[AllylGly]-Glu(ONb)-NH2; configuration not given here),13.4 µg/mL,27.9 µg/mL,13.3 µg/mL,26.5 µg/mL,34.1 µg/mL,,33 µg/mL,,26.7 µg/mL,77.6 µg/mL,26.5 µg/mL,68.8 µg/mL,57.5 µg/mL,,47.8 µg/mL,,65.2 µg/mL,,19.5 µg/mL,38.9 µg/mL
CC(=O)Nc1ccc2c(c1)c(C1=C(c3cn(C)c4ccccc34)C(=O)NC1=O)cn2C,0.538 µM,1.79 µM,0.807 µM,12 µM,16.4 µM,> 25 µM,1.5 µM,> 25 µM,1.22 µM,> 22.1 µM,0.94 µM,5.74 µM,1.66 µM,> 25 µM,0.675 µM,> 17 µM,1.16 µM,> 25 µM,1.15 µM,> 25 µM
Cc1nc2c(nc1C)C(=O)c1cc(O)ccc1C2=O,,> 100 µM,,> 100 µM,,> 100 µM,,> 100 µM,,> 79.7 µM,,> 100 µM,,> 100 µM,,> 100 µM,,> 100 µM,,53.5 µM
COc1cc2c3c(n(C)c(=O)c2cc1OC)-c1cc2c(cc1/C3=C\CCCCCN)OCO2,10.6 µM,39.4 µM,4.03 µM,29 µM,< 0.01 µM,1.34 µM,2.55 µM,> 46.6 µM,0.1 µM,1.38 µM,31 µM,> 100 µM,0.271 µM,18.4 µM,< 0.01 µM,,1.56 µM,16.7 µM,2.56 µM,25.3 µM
O=C(Nc1ccc(N2CCNCC2)cc1)c1[nH]ncc1Nc1ncnc2sc3c(c12)CCC3,0.188 µM,1.58 µM,0.0302 µM,1.91 µM,0.125 µM,1.38 µM,0.146 µM,1.64 µM,0.67 µM,3.58 µM,1.27 µM,3.01 µM,0.412 µM,1.84 µM,0.0638 µM,,0.108 µM,0.244 µM,1.07 µM,2.31 µM
COc1cc(OC)c([C@@H]2OC(=O)C3C2C(=O)O[C@H]3c2cc(OC)c(OC)cc2OC)cc1OC (some centres undefined),,> 100 µM,,> 10 µM,,> 10 µM,,> 100 µM,,> 100 µM,,> 100 µM,,> 100 µM,,> 100 µM,,> 100 µM,,> 100 µM
N#Cc1c(-c2nc3ccccc3s2)c(=O)oc2cc(O)ccc12,,> 100 µM,,46.3 µM,,> 100 µM,,> 100 µM,,> 100 µM,,> 100 µM,,> 100 µM,,> 100 µM,,> 100 µM,,> 100 µM
C[C@@H]1C[C@@H](O)[C@]2(O)O[C@@H]3C[C@@]4(C=O)[C@@H](CC[C@@H]5[C@@H]4CC[C@]4(C)[C@@H](C6=CC(=O)OC6)CC[C@]54O)C[C@H]3O[C@@H]2O1,0.00998 µM,0.115 µM and 0.0399 µM,0.135 µM,0.234 µM and 0.683 µM,0.033 µM and 0.00727 µM,0.0474 µM and 0.175 µM and 0.0516 µM,0.0891 µM and 0.0324 µM,0.074 µM and 0.232 µM and 0.2 µM,,0.0752 µM,0.052 µM and 0.0898 µM,,0.005 µM,0.0897 µM and 0.144 µM and 0.0759 µM,0.013 µM,0.0128 µM and 0.0317 µM,0.0449 µM and 0.0153 µM,0.0725 µM and 0.158 µM and 0.0697 µM,0.0515 µM and 0.0216 µM,0.0465 µM and 0.213 µM and 0.0895 µM
CC1OC(OCC2OC(Oc3c(-c4ccc(O)cc4)oc4cc(O)cc(O)c4c3=O)C(OC3OCC(O)(CO)C3O)C(O)C2O)C(O)C(O)C1O (centres undefined),,> 100 µM,,> 100 µM,,> 100 µM,,> 100 µM,,> 100 µM,,> 100 µM,,> 100 µM,,> 100 µM,,> 100 µM,,> 100 µM
CN1CCN(CN2C(=O)C3C4C=CC(C3C2=O)C2C3C(=O)N(CN5CCN(C)CC5)C(=O)C3C42)CC1 (centres undefined),,> 100 µM and 97.9 µM,35.7 µM and > 96.5 µM and > 100 µM,94.8 µM and > 100 µM,,> 100 µM,,30.8 µM and 34.2 µM and 40.8 µM,,59.2 µM and 53.2 µM and 71.5 µM,,40 µM and 35.6 µM and 30 µM,,43.7 µM and 41.9 µM and 52.8 µM,,41.6 µM and 36.2 µM,,38.3 µM and 37.2 µM and 33 µM,,43.3 µM and 37.1 µM and 58.7 µM
COc1ccc2nc(N/N=C(\C)c3ccccn3)cc(C)c2c1,0.812 µM,7.02 µM,0.169 µM,2.55 µM,0.219 µM,1.05 µM,0.212 µM,1.13 µM,0.369 µM,1.36 µM,0.174 µM,0.973 µM,0.317 µM,1.71 µM,0.0592 µM,0.452 µM,0.261 µM,1.28 µM,0.275 µM,1.01 µM
CNC(=O)c1cc(OC2CCC(NC(=O)Nc3ccc(Cl)c(C(F)(F)F)c3)CC2)ccn1 (centres undefined),8.14 µM,22.1 µM,6.8 µM,27.1 µM,13.4 µM,39.6 µM,5.47 µM,20.6 µM,2.86 µM,14.8 µM,15.8 µM,38.3 µM,6.2 µM,22.1 µM,4.42 µM,32.7 µM,6.81 µM,23.4 µM,5.41 µM,19.4 µM
CS(=O)(=O)CCNCc1nc(-c2ccc3ncnc(Nc4ccc(F)c(Cl)c4)c3c2)cs1,3.32 µM,20.5 µM,9.82 µM,> 25 µM,7.39 µM,> 25 µM,21.5 µM,> 25 µM,> 21.4 µM,> 25 µM,> 17.6 µM,> 25 µM,15.6 µM,> 25 µM,> 14 µM,> 22.2 µM,> 25 µM,> 25 µM,17.6 µM,> 25 µM
COc1ccc(N=C2CSc3nnc(-c4cc(F)c(Cl)cc4Cl)n3N2)cc1,1.54 µM,13 µM,2.83 µM,19.1 µM,0.187 µM,0.595 µM,0.572 µM,8.27 µM,1.41 µM,11 µM,2.75 µM,13.4 µM,2.61 µM,14.4 µM,0.33 µM,0.799 µM,0.497 µM,10.8 µM,0.576 µM,23.2 µM
COc1ccc(C(=O)/C(Br)=C/C(=O)O)cc1,58.3 µM,192 µM and 77.3 µM,,93.7 µM and 93.6 µM,121 µM and 144 µM,321 µM and 461 µM,52.9 µM,79.3 µM and 120 µM,7.57 µM,110 µM and 78.6 µM,,29.3 µM and 32 µM,53.7 µM,228 µM and 183 µM,19.1 µM,> 86 µM and 321 µM,,46.5 µM and 52.1 µM,12.3 µM,45.3 µM and 32.3 µM
